Test results from patent US20230200394A1, “SELECTIVE HERBICIDES BASED ON SUBSTITUTED ISOXAZOLIN CARBOXAMIDES AND BENOXACOR” (BAYER AKTIENGESELLSCHAFT, priority 2020, published 2023).

Test system: ZEAMA Sileno
Assay: Safener seed treatment; pre-emergence herbicide application, visual scoring of % crop damage in greenhouse
Type: in vivo, maize
Details: for HER effect [%] / HER effect + SAF [%]: crop damage, pre-emergence; for HER effect [%]: herbicide alone (no safener); for HER effect + SAF [%]: seed treated with Benoxacor 0.25 g a.i./kg seed; for Reduction [Difference]: herbicide damage without safener minus with Benoxacor 0.25 g a.i./kg seed; for Reduction [%]: reduction of herbicide damage by Benoxacor 0.25 g a.i./kg seed, relative to damage without safener
Description: Seed Treatment; Pre-Emergence For the safener seed treatment, sufficient seeds of the respective crops (spring wheat, TRZAS; spring barley, HORVS; maize, ZEAMA) were weighed into screw top glass bottles approximately twice the volume of the seeds. The specified safeners, formulated as wettable powder (WP) were weighed out so that the specified rates (g a.i./kg seed) would be obtained, dissolved in water (1 ml water per 10 g of seeds), and added to the seeds to produce a slurry. The bottles were capped and then placed in an overhead shaker (set at medium speed for ca. 60 minutes) so that the seeds were evenly coated with the slurry. The bottles were uncapped and the seeds were either placed on paper and dried for an interval of 3-4 hours prior to sowing, or directly sown. Seeds were placed in sandy loam soil in pots of a diameter of 7-8 cm, and covered with soil. Pre-emergence application of the specified herbicides was done subsequently, on two sets of plants: a) seed treatment with safener, as described above b) no safener treatment The herbicides were formulated as WP and was sprayed onto the soil surface as an aqueous suspension at an equivalent water application rate of 300 l/ha. After application, the test plants were kept in the greenhouse under good growth conditions. At intervals up to 4 weeks after application (=28 days after treatment; DAT), % crop damage observed on the treated plants was scored visually in comparison to control plants that had not received any safener or herbicide treatment. Values in the table below are mean values of at least 2 replicates.

[1] = HER dose 40 g a.i./ha, assessment 14 DAT
[2] = HER dose 40 g a.i./ha, assessment 26 DAT
[3] = HER dose 80 g a.i./ha, assessment 14 DAT

Structure (SMILES): C=CC1(C(=O)NC2C=CC(C(=O)OC)C2)CC(c2cc(F)cc(F)c2)=NO1 (stereo not shown) [Example 1.26]
- HER effect [%] [1]: 25%
- HER effect [%] [2]: 50%
- HER effect [%] [3]: 70%
- HER effect [%] (HER dose 80 g a.i./ha, assessment 26 DAT): 70%
- HER effect + SAF [%] (HER dose 40 g a.i./ha, 14 DAT): 5%
- HER effect + SAF [%] (HER dose 40 g a.i./ha, 26 DAT): 5%
- HER effect + SAF [%] (HER dose 80 g a.i./ha, 14 DAT): 35%
- HER effect + SAF [%] (HER dose 80 g a.i./ha, 26 DAT): 30%
- Reduction [Difference] (HER dose 40 g a.i./ha, 14 DAT): 20
- Reduction [Difference] (HER dose 40 g a.i./ha, 26 DAT): 45
- Reduction [Difference] (HER dose 80 g a.i./ha, 14 DAT): 35
- Reduction [Difference] (HER dose 80 g a.i./ha, 26 DAT): 40
- Reduction [%] (HER dose 40 g a.i./ha, 14 DAT): 80%
- Reduction [%] (HER dose 40 g a.i./ha, 26 DAT): 90%
- Reduction [%] (HER dose 80 g a.i./ha, 14 DAT): 50%
- Reduction [%] (HER dose 80 g a.i./ha, 26 DAT): 57%

Structure (SMILES): C=CC1(C(=O)NC2COC(C(=O)OC)C2)CC(c2cc(F)cc(F)c2)=NO1 (mixture of isomers) [Example 1.68]
- HER effect [%] [2]: 95%
- HER effect + SAF [%] (HER dose 40 g a.i./ha, 26 DAT): 60%
- Reduction [Difference] (HER dose 40 g a.i./ha, 26 DAT): 35
- Reduction [%] (HER dose 40 g a.i./ha, 26 DAT): 37%

Structure (SMILES): CC1(C(=O)NC2C=CC(C(=O)O)C2)CC(c2cc(F)cc(F)c2)=NO1 (stereo not shown) [Example 1.36]
- HER effect [%] [1]: 60%
- HER effect [%] [3]: 83%
- HER effect + SAF [%] (HER dose 40 g a.i./ha, 14 DAT): 40%
- HER effect + SAF [%] (HER dose 80 g a.i./ha, 14 DAT): 60%
- Reduction [Difference] (HER dose 40 g a.i./ha, 14 DAT): 20
- Reduction [Difference] (HER dose 80 g a.i./ha, 14 DAT): 23
- Reduction [%] (HER dose 40 g a.i./ha, 14 DAT): 33%
- Reduction [%] (HER dose 80 g a.i./ha, 14 DAT): 28%
